# From EP1839675A1, “NOVEL METHOD OF PROTECTING ISCHEMIC CARDIOPATHY” (Japan Science and Technology Agency, priority 2004, dated 2006)
# Key:
# [1] = system: ischemic cardiac muscle; details: cited from earlier work; for effect on ischemic cardiac muscle: administered after a period of ischemia; for size of infarct in ischemic cardiac muscle: pre-ischemic administration
# [2] = extended period (45 minutes); cited from earlier work
# [3] = system: rat ventricular myocytes; assay: Necrotic cell death by Hoechst 33342 / propidium iodide double staining immediately after ischemia; assay type: cell-based; details: Ventricular myocyte, NPPB 50 µM at start of ischemic treatment, after 8 hours of ischemia, group without reagent 44.4%, read-out: cells stained by PI
# Protocol: Primary cultures of rat ventricular myocytes were prepared and cultured in the manner described in Example 1. The procedures of Example 1 were also used to expose the primary cultures of rat ventricular myocytes to ischemic treatment (removal of glucose and oxygen). […] Immediately after ischemia, cells were double stained to examine a rate of necrotic cell death, using Hoechst 33342 and propidium iodide (PI) according to a method known in the art. Hoechst 33342 stains the nucleus of all cells, and propidium iodide (PI) stains only dead cells with necrosis-induced membrane injury.
# [4] = system: rat ventricular myocytes; assay: Nuclear DNA fragmentation (apoptosis) by Cell Death Detection ELISA, enrichment factor; assay type: cell-based; details: NPPB 50 µM or dbcAMP 1mM + PMA 100 nM
# Protocol: Primary cultures of rat ventricular myocytes were prepared and cultured in the manner described in Example 1. The procedures of Example 1 were also used to expose the primary cultures of rat ventricular myocytes to ischemic treatment (removal of glucose and oxygen) and post-ischemic reperfusion. The primary cultures of rat ventricular myocytes were administered with CFTR channel activator (PKA activator dbcAMP (1mM) + PKC activator PMA (100 nM)), or CFTR channel blocker (NPPB (50 µM)). Administration was made at the start of ischemic treatment, which lasted 8 hours. Fragmentation of nuclear DNA in the cells was assayed immediately after ischemia or 96 hours after post-ischemic reperfusion (Figure 5). Specifically, DNA fragmentation was assayed using a method (DNA fragmentation detecting method (Cell Death Detection ELIZA kit^PLUS (Roche Diagnostics), which specifically detects […] that are characteristics of apoptotic cells. The result of measurement was obtained as enrichment factor, which was calculated according to the following formula. Enrichment factor (rate of nuclear DNA fragmentation) = absorbance of sample (dead cells)/absorbance of control (untreated cells) [formula]
# [5] = system: neonatal rat ventricular myocytes; assay: Cell viability (MTT) after ischemic treatment and post-ischemic reperfusion in primary cultures; assay type: cell-based; details: for effect of dbcAMP + PMA on cell viability under co-application of CFTR channel blocker: DP plus NPPB 50 µM, glibenclamide 500 µM, gemfibrozil 2 mM or 9AC 2 mM during ischemic treatment, MTT after 96 hours reperfusion
# Protocol: Primary cultures of ventricular myocytes were prepared from the hearts of neonatal rats by enzyme treatment. M199+10% FBS was used as culture medium. To reduce the number of contaminating non-myocardial cells, the medium was supplemented with 100 µM BrdU during incubation. The primary cell cultures of rat myocardial cells were subjected to ischemic treatment (removal of glucose and oxygen) and post-ischemic reperfusion according to the following procedures. The medium was replaced with a glucose-free solution, which contained 108 mM NaCl, 0.5 mM MgCl2, 5.4 mM KCl, 1mM CaCl2, and 5 mM HEPES (pH adjusted to 7.4 with NaHCO3), and were incubated at 37°C for 8 hours under anaerobic conditions, which were created by replacing air with a gas mixture of 95% Ar and 5% CO2. Immediately after incubation, the solution was replaced with a glucose-containing normal medium (M199+10% FBS), and then left in a CO2 incubator (95% air (20% O2), 5% CO2, 37°C) for 96 hours (reperfusion: re-supply of glucose/reoxygenation). Cl^- channel blocker (NPPB) was administered to the primary cell cultures of rat ventricular myocytes 1 hour prior to ischemic treatment, or at the start of ischemic treatment that lasted 8 hours. Cl- channel blocker (NPPB) was also administered over a time period of 18 hours after the start of post-ischemic reperfusion. Cell viability was assayed using MTT. To ensure accuracy in viable cell count, the assay was performed using cells obtained 96 hours after the start of post-ischemic reperfusion (Figure 1).
# Primary cultures of rat ventricular myocytes were prepared and cultured in the manner described in Example 1. The procedures of Example 1 were also used to expose the primary cultures of rat ventricular myocytes to ischemic treatment (removal of glucose and oxygen) and post-ischemic reperfusion.
# (§1) During ischemic treatment, the primary cultures of rat ventricular myocytes were administered with CFTR channel activator (PKA activator dbcAMP (1mM) or PKC activator PMA (100 nM), or both (DP)), or CFTR channel activator + CFTR channel blocker (NPPB (50 µM), glibenclamide (500 µM), gemfibrozil (2 mM), or 9AC (2 mM)). Following administration, ischemia was induced for 8 hours, and, after 96 hours of subsequent reperfusion, cell viability was assayed using MTT (Figure 2).
# as §1, with “(milrinone (0.73 µg, 1 ml), isoproterenol (10 nM), and” for “(PKA activator dbcAMP (1mM) or PKC activator”, “nM) used together (MIP)),” for “nM), or both (DP)),”, “3).” for “2).”
# [6] = cited from earlier work
# [7] = dbcAMP 1mM and/or PMA 100 nM during ischemic treatment, 8 hours ischemia, 96 hours reperfusion, MTT (Figure 2)
compound,measurement,setting,value
Nc1cc(-c2ccncc2)c[nH]c1=O [amrinone],effect on ischemic cardiac muscle,[1],do not exhibit any effect
same,size of infarct in ischemic cardiac muscle,[1],effective in reducing the size of infarct
CC(C)c1ccc(C(=O)NC(=N)N)cc1S(C)(=O)=O [cariporide],effect on injury caused by post-ischemic reperfusion,[2],ineffective
"O=C(O)c1cc([N+](=O)[O-])ccc1NCCCc1ccccc1 [NPPB, 5-nitro-2-2(3-phenylpropylamino)-benzoate]",cytotoxicity at 50 µM,[3],90.3%
same,level of DNA fragmentation,"[4]; 96 hours after reperfusion, compared with non-administered group",no significant difference
same,level of DNA fragmentation,"[4]; immediately after 8 hours ischemia, compared with non-ischemic cells (score of 1)",the same
same,cell viability,"[5]; 50 µM NPPB administered during ischemic treatment (8 hours), MTT 96 hours after start of reperfusion",significant reduction
same,effect of dbcAMP + PMA on cell viability under co-application of CFTR channel blocker,[5],completely abolished
COc1ccc(Cl)cc1C(=O)NCCc1ccc(S(=O)(=O)NC(=O)NC2CCCCC2)cc1 [glibenclamide],effect of dbcAMP + PMA on cell viability under co-application of CFTR channel blocker,[5],completely abolished
"Cc1[nH]c(=O)c(C#N)cc1-c1ccncc1 [milrinone, 1,6-dihydro-2-methyl-6-oxo[3,4'-bipyridine]-5-carbonitrile]",effect on ischemic cardiac muscle,[1],do not exhibit any effect
same,size of infarct in ischemic cardiac muscle,[1],effective in reducing the size of infarct
same,milrinone in the blood circulating bound to protein,[6]; blood,about 70%
same,excretion / metabolism,[6]; in vivo,released into urine without being metabolized
same,half-life,[6]; in vivo,2 h
Cc1ccc(C)c(OCCCC(C)(C)C(=O)O)c1 [gemfibrozil],effect of dbcAMP + PMA on cell viability under co-application of CFTR channel blocker,[5],completely abolished
"CCCCCCCCCCCCCC(=O)O[C@@H]1[C@@H](C)[C@@]2(O)[C@@H](C=C(CO)C[C@]3(O)C(=O)C(C)=C[C@@H]23)[C@@H]2C(C)(C)[C@]12OC(C)=O [PMA, phorbol 12-myristate 13-acetate]",cell viability,[5]; [7],could not produce the effect
"CCCC(=O)Nc1ncnc2c1ncn2[C@@H]1O[C@@H]2COP(=O)(O)O[C@H]2[C@H]1OC(=O)CCC [dbcAMP, N6,2'-O-dibutyriladenosine-3':5'-cyclic monophosphate]",cell viability,[5]; [7],could not produce the effect
